Test [1] has as its system TU3A. In words: TU3A mRNA expression in prostate cancer cell lines after 5-Aza-CdR treatment (TaqMan real-time PCR). Conditions: 6 μM 5-Aza-CdR for 6 days. On the technique in general: In qPCR the cycle at which signal appears reflects the starting amount.
In test [2] the test system is SVIL. Briefly: SVIL mRNA expression in prostate cancer cell lines after 5-Aza-CdR treatment (TaqMan real-time PCR). Particulars: 6 μM 5-Aza-CdR for 6 days.
For test [3], the system named is KIAA1210. Briefly: KIAA1210 mRNA expression in prostate cancer cell lines after 5-Aza-CdR treatment (TaqMan real-time PCR). Particulars: LAPC4 and LNCaP cells; 6 μM 5-Aza-CdR for 6 days.
The subject of test [4] is ZNF185. Briefly: ZNF185 mRNA expression in prostate cancer cell lines after 5-Aza-CdR treatment (Taqman real-time PCR). It counts as cell-based, human. Conditions: LAPC4, LNCaP and PC3 prostate cancer cell lines; 6 μM 5-Aza-CdR for 6 days; versus untreated cells.
For test [5], the system named is FLJ14084. Briefly: FLJ14084 mRNA expression in prostate cancer cell lines after 5-Aza-CdR treatment (TaqMan real-time PCR). Conditions: all three prostate cancer cells (LAPC4, LNCaP, PC3); 6 μM 5-Aza-CdR for 6 days.
The test system of test [6] is PRIMA1. Briefly: PRIMA1 mRNA expression in prostate cancer cell lines after 5-Aza-CdR treatment (TaqMan real-time PCR). Conditions: 6 μM 5-Aza-CdR for 6 days.
Test [7] concerns ZNF185 5′ CpG dinucleotides of genomic DNA. In words: Methylation specific PCR (MSP) of ZNF185 DNA in prostate cell lines with or without 5-Aza-CdR. It counts as cell-based, human. Particulars: prostate cancer cell lines with 5-Aza-CdR treatment versus without. On the procedure:
DNA isolation and Bisulfite modification. Genomic DNA was obtained from metastatic, primary, matched benign prostatic tissues and the above mentioned prostate cancer cell lines treated with 5-Aza-CdR, using Wizard® genomic DNA purification kit according to the manufacturer's protocol (Promega, Madison, Wis.). Genomic DNA (100 ng) was modified by sodium bisulfite treatment by converting unmethylated, but not methylated, cytosines to uracil as described previously (Herman et al., Proc. Natl. Acad. Sci. USA 93:9821-9826, 1996). DNA samples were then purified using the spin columns (Qiagen), and eluted in 50 μl of distilled water. Modification was completed by treatment with NaOH (0.3 M final concentration) for 5 min at room temperature, followed by ethanol precipitation. […]
Methylation Specific PCR (MSP). DNA methylation patterns within the gene were determined by chemical modification of unmethylated cytosine to uracil and subsequent PCR as described previously (Esteller et al., Cancer Res. 61:3225-3229, 2001), using primers specific for either methylated or the modified unmethylated sequences.
Two sets of primers were designed corresponding to the genomic positions around 210 and 335. […] One (1) μl of the PCR product was directly loaded onto DNA 500 lab chip and analyzed on Agilent 2100 Bioanalyzer (Agilent Technologies, Palo Alto, Calif.).

On to `Nc1ncn([C@H]2C[C@H](O)[C@@H](CO)O2)c(=O)n1` [5-Aza-CdR, 5-aza-2′-deoxycytidine], for which the TU3A expression levels result in test [1] (LAPC4 and PC3 cells) was “not in LAPC4 and PC3 cells”; in test [1] (LNCaP cells), “significantly increased”. Further, the “expression of SVIL mRNA levels” value is reported as “not in LACaP” in test [2] (LACaP cells (so in the source)); “significant increase” in test [2] (LAPC4 and PC3 cells). Besides, the “KIAA1210 mRNA levels” value in test [3] is “increased”. Further, the “increase in mRNA levels of ZNF185” value in test [4] is recorded as around 2.0 fold. The “expression of FLJ14084 mRNA levels” value in test [5] is “significant increase”. In addition, the “expression of PRIMA1 mRNA levels” value in test [6] (LACaP cells (so in the source)) was “not in LACaP”; in test [6] (LAPC4 and PC3 cells), “significant increase”. Further, the “methylated and unmethylated ZNF185 bands by MSP” value in test [7] was “reduction of the methylated band and increase of the unmethylated band”.

For the origin of these results see US20070048738A1, “Methods and compositions for diagnosis, staging and prognosis of prostate cancer” (Mayo Foundation for Medical Education and Research, priority 2003, published 2007).
